Read-outs that look alike come from different tables or passages of the source.
Experiments:
[1] = system: L3.6 pancreatic tumor implants; settings: for anti-tumor response in combination therapy with C6-ceramide: SCID Mice bearing L3.6 pancreatic tumor implants; for Mean Body Weight (g) (Time of Death or Sacrifice): at time of death or sacrifice
Description: (§1) In vivo experiments utilized SCID/Beige/Taconic male mice inoculated subcutaneously (S.C.) with 2×10^6 L3.6 pancreatic cells. Chemotherapy dose levels were based on standardized clinical dosing as modified from in vitro data. […] The data recovered included maximum tumor volume, tumor weight, body weight and survival. Histopathology studies were carried out in a separate group of 40 mice treated by the same drug dose levels and autopsied at 4 hours and 24 hours. Tumors were bi-valved and fixed in buffered formalin or frozen in hexane/acetone bath. A major focus was effects on tumor necrosis, apoptosis, mitotic index and caspase 3 index.
SCID/Beige/Taconic male mice, 22-25 g, 6-8 weeks old purchased from Taconic Laboratory (Germantown, N.Y.) were ear tagged and randomized into eight groups of 5 mice each prior to inoculation s.c. with 2×10^6 L3.6 PA cells (46) in a volume 0.1 ml into the internal surface of the right thigh. Treatment was started according to the protocol <0.5 cc> (early 4 days or late 10 days). […] Mice were treated 3 times/week for 4-6 weeks with intraperitoneal injections of chemotherapy at dose levels to be described. Body weight of mice and diameters of tumors were measured every week. Tumor volumes (cm^3) were calculated by formula: V=Higher diameter X (smaller diameter)^2/2 (47-50). At the end of the 6 week observation period surviving mice were euthanized with CO2 inhalation. All the mice were autopsied and tissues were fixed in 10% buffered formalin, embedded in paraffin, and H&E sections of primary tumor, lungs, spleen, liver were examined microscopically. We also analyzed survival rate (%), mean tumor volume (MTV), mean survival time (MST), % mice with primary tumors and final rate of tumor development per survival time (FRTD). The last test was calculated from the MTV and MST: FRTD(cm^3/d)=MTV (cm^3/MST/day).
Our initial dose response studies were done using low dose ceramide 1 mg/kg and oxaliplatin dose levels of 11.0 mg/kg→3.5 mg/kg. […] We next studied the optimum ceramide dose level from 1 mg/kg to 10 mg/kg.

L36 Tumors = experiment: Short term (4/24 hrs) histopathology of L3.6 tumors: necrosis, mitotic index, apoptosis (H&E), caspase 3 staining; format: in vivo, mice
Description: as §1

[2] = IP 3x/wk from day 4, paclitaxel 3.0, oxaliplatin 2.5, cisplatin 0.5 mg/kg, ceramide 10 mg/kg, volumes calculated in cm^3
[3] = Oxaliplatin at 2.5 mg/kg with low dose ceramide 1 mg/kg
[4] = same dosing, 6 week observation

SMILES	% Survival @ 3 Weeks [1] [%]	% Surviving at 3 wks ([1]; table T3) [%]	% Survival @ 6 Weeks [1] [%]	% Surviving at 6 wks ([1]; table T3) [%]	Mean Final Tumor Volume [1, 2]	anti-tumor response in combination therapy with C6-ceramide [1]	Mean Body Weight (g) (Time of Death or Sacrifice) [1]	Mean Survival Time [1, 4] [days]	Mean Final Tumor Volume ([1]; table T3)	Mean Survival Time ([1]; table T3)	% of Necroses (L36 Tumors; 4 hr after treatment)	Apoptosis Index (L36 Tumors; 4 hrs)	Apoptosis N/4000 Cells (L36 Tumors; 4 hrs) [N/4000 Cells]	Caspase 3 Index (L36 Tumors; 4 hrs)	Caspase N/4000 Cells (L36 Tumors; 4 hrs) [N/4000 Cells]	Difference in Caspase Expression Vs. Control (L36 Tumors; 4 hrs)	Mitotic Index (L36 Tumors; 4 hrs) [%]	Apoptosis Index (L36 Tumors; 24 hrs)	Apoptosis N/4000 Cells (L36 Tumors; 24 hrs) [N/4000 Cells]	Caspase 3 Index (L36 Tumors; 24 hrs)	further results
O=C1[O][Pt]2([NH][C@@H]3CCCC[C@H]3[NH]2)[O]C1=O [Oxaliplatin]	100	100	0	0	1.76 +/− 0.2	significantly enhanced	15.6	27.4 ± 2.2	1.76 +/− 0.2	27.4 +/− 2.2	30%	1.35	54	3.5	148	132%	0.92	1.28	51	3/1	activity in initial dose response studies [1, 3]: most active; toxicity in initial dose response studies [1, 3]: less toxic than other dose levels; % of Necroses (L36 Tumors; 24 hr after treatment): 10%; Caspase N/4000 Cells (L36 Tumors; 24 hrs): 123 N/4000 Cells; Difference in Caspase Expression Vs. Control (L36 Tumors; 24 hrs): 121%; Mitotic Index (L36 Tumors; 24 hrs): 0/57
CC(=O)O[C@H]1C(=O)[C@@]2(C)[C@H]([C@H](OC(=O)c3ccccc3)[C@]3(O)C[C@H](OC(=O)[C@H](O)[C@@H](NC(=O)c4ccccc4)c4ccccc4)C(C)=C1C3(C)C)[C@]1(OC(C)=O)CO[C@@H]1C[C@@H]2O [Taxol, Paclitaxel]	60	60	0	0	1.83 +/− 0.4	significantly enhanced	17.4	23.0 ± 2.4	1.83 +/− 0.4	23.0 +/− 2.4	50/NA %		66			95%/ ^			110		
N.N.[Cl][Pt][Cl] [Cisplatin]	60	60	0	0	1.83 +/− 0.1	significantly enhanced	16.6	25.6 ± 3.2	1.83 +/− 0.1	25.6 +/− 3.2											
CCCCCCCCCCCCC/C=C/[C@@H](O)[C@H](CO)NC(=O)CCCCC [Ceramide, N-hexanoyl-D-sphingosine]	40	40	0	0	1.69 +/− 0.3		17.0	20.8 ± 1.1	1.69 +/− .03	20.8 +/− 1.1	30/NA %	1.6	64	4.12	165	155%	0.6	1/2	46	4.25	synergy regarding anti-tumor effect ([1]; Ceramide 10 mg/kg with oxaliplatin 2.5 mg/kg): optimum synergy; enhancement of oxaliplatin by ceramide ([1]; Ceramide at 1 mg/kg with oxaliplatin 2.5 mg/kg): only modest effects; animal weight under combination therapy ([1]; mouse, in vivo): preservation of animal weight; Caspase N/4000 Cells (L36 Tumors; 24 hrs): 157 N/4000 Cells; Difference in Caspase Expression Vs. Control (L36 Tumors; 24 hrs): 148%; Mitotic Index (L36 Tumors; 24 hrs): 0/32
